According to patent US20210106703A1, “RADIOIMMUNOCONJUGATES IN COMBINATION WITH OTHER DRUGS AS TREATMENT AGAINST NHL” (Nordic Nanovector ASA, priority 2017, published 2021):
Where two headings read alike, the source gives them in different places.

Key:
U2932 cells = assay: Real Time Glo viability assay, Betalutin and cell cycle inhibitors (Example 2); assay type: cell-based, human; conditions: for viability at 0.1 µM / viability at 1 µM: Homo sapiens; for viability at 0.1 µM: U2932, U2932, drug 100 nM
Procedure: (§1) Cells were split twice a week 1:3-1:5 depending on cell density. […] Real Time Glo was purchased from Promega. 384 well plates were purchased from Greiner Bio-One.
(§2) Cells were treated for 18-20 h with Betalutin at a final concentration of 1 μg/ml and 2 μg/ml in 6-well cell culture plates with shaking. After treatment, PBS was added to the cells, and the cells pelleted. Cells were first resuspended in 1 ml PBS, then washed twice in PBS and finally diluted in growth medium at the desired concentration. All cell lines were treated at a cell concentration of 2.5*10^6 cells/ml.
(§3) Regardless of cell number the culturing volume was 25 μl. For Real Time Glo, the Cell Viability Substrate and NanoLuc® Enzyme were diluted 1:500 in growth medium, and 25 μL of diluted reagents added to each well. All reagents were equilibrated to 37° C. Cells were incubated with the reaction mix for 1 h at 37° C. before the first measurement of luminescence. Measurements were repeated as often as required within 72 h after adding the reagents. Digitonin was added to cells at 200 μg/ml to record background luminescence of dead cells. A Tecan SPARK 10M plate reader was used to measure luminescence, with an integration time set to 1 sec.
(§4) Growth inhibition was calculated by dividing the luminescence signal of the treated cells by the luminescence signal of the control cells for each day of measurement after start of treatment [Table 1].
(§5) To evaluate effects of the drugs alone [(−)Betalutin] and their combination with Betalutin [(+)Betalutin], we calculated the Z-score for each sample (ZdrugX=1-(+)BetalutindrugX/(−)BetalutindrugX), where (+)BetalutindrugX and (−) BetalutindrugX are the measured luminescence intensity values for drug X in presence and absence of Betalutin, respectively. The calculation of Z-score values separately for each plate enabled comparison of results across plates, despite variations between the plates in overall signal intensity.

RIVA cells = assay: as above; assay type: cell-based, human; conditions: for viability at 0.1 µM / viability at 1 µM: Homo sapiens, read-out: Growth inhibition (signal treated/control; 1 = no change); for viability at 0.1 µM: drug 100 nM
Procedure: as §1, §2, §3, §4, §5

[1] = (+)Betalutin, Dy3, read-out: Growth inhibition (signal treated/control; 1 = no change)
[2] = (+)Betalutin, Dy4, read-out: Growth inhibition (signal treated/control; 1 = no change)
[3] = (+)Betalutin, Dy5, read-out: Growth inhibition (signal treated/control; 1 = no change)
[4] = (+)Betalutin, Dy6, read-out: Growth inhibition (signal treated/control; 1 = no change)
[5] = (−)Betalutin, Dy3, read-out: Growth inhibition (signal treated/control; 1 = no change)
[6] = (−)Betalutin, Dy4, read-out: Growth inhibition (signal treated/control; 1 = no change)
[7] = (−)Betalutin, Dy5, read-out: Growth inhibition (signal treated/control; 1 = no change)
[8] = (−)Betalutin, Dy6, read-out: Growth inhibition (signal treated/control; 1 = no change)
[9] = U2932, U2932, drug 1 μM, (+)Betalutin, Dy3, read-out: Growth inhibition (signal treated/control; 1 = no change)
[10] = U2932, U2932, drug 1 μM, (+)Betalutin, Dy4, read-out: Growth inhibition (signal treated/control; 1 = no change)
[11] = U2932, U2932, drug 1 μM, (+)Betalutin, Dy5, read-out: Growth inhibition (signal treated/control; 1 = no change)
[12] = U2932, U2932, drug 1 μM, (+)Betalutin, Dy6, read-out: Growth inhibition (signal treated/control; 1 = no change)
[13] = U2932, U2932, drug 1 μM, (−)Betalutin, Dy3, read-out: Growth inhibition (signal treated/control; 1 = no change)
[14] = U2932, U2932, drug 1 μM, (−)Betalutin, Dy4, read-out: Growth inhibition (signal treated/control; 1 = no change)
[15] = U2932, U2932, drug 1 μM, (−)Betalutin, Dy5, read-out: Growth inhibition (signal treated/control; 1 = no change)
[16] = U2932, U2932, drug 1 μM, (−)Betalutin, Dy6, read-out: Growth inhibition (signal treated/control; 1 = no change)
[17] = RIVA, drug 1 μM, +Betalutin, Dy3
[18] = RIVA, drug 1 μM, +Betalutin, Dy4
[19] = RIVA, drug 1 μM, +Betalutin, Dy5
[20] = RIVA, drug 1 μM, +Betalutin, Dy6
[21] = RIVA, drug 1 μM, −Betalutin, Dy3
[22] = RIVA, drug 1 μM, −Betalutin, Dy4
[23] = RIVA, drug 1 μM, −Betalutin, Dy5
[24] = RIVA, drug 1 μM, −Betalutin, Dy6

Compound Cc1csc(-c2nnc(Nc3ccc(Oc4ncccc4-c4ccnc(N)n4)cc3)c3ccccc23)c1 [AMG 900] has a viability at 0.1 µM (U2932 cells; [1]) of 89%, a viability at 0.1 µM (U2932 cells; [2]) of 78% and a viability at 0.1 µM (U2932 cells; [3]) of 77%. The viability at 0.1 µM (U2932 cells; [4]) was 52%, the viability at 0.1 µM (U2932 cells; [5]) was 96% and the viability at 0.1 µM (U2932 cells; [6]) was 97%. The viability at 0.1 µM (U2932 cells; [7]) was 92%, the viability at 0.1 µM (U2932 cells; [8]) was 72% and the viability at 1 µM (U2932 cells; [9]) was 77%. For the same compound, the viability at 1 µM (U2932 cells; [10]) was 77%, the viability at 1 µM (U2932 cells; [11]) was 80% and the viability at 1 µM (U2932 cells; [12]) was 58%. It also gave a viability at 1 µM (U2932 cells; [13]) of 83%, a viability at 1 µM (U2932 cells; [14]) of 96% and a viability at 1 µM (U2932 cells; [15]) of 96%. For the same compound, the viability at 1 µM (U2932 cells; [16]) was 81%, the “Synergy for the combination with Betalutin” value (“Synergy for the combination” for short) (U2932 cells; U2932, drug 100 nM) was “Bliss + Z-score” and the “Synergy for the combination” value (U2932 cells; U2932, drug 1 μM) was “Z-score”. For the same compound, the viability at 0.1 µM (RIVA cells; RIVA, +Betalutin, Dy3) was 22%, the viability at 0.1 µM (RIVA cells; RIVA, +Betalutin, Dy4) was 16% and the viability at 0.1 µM (RIVA cells; RIVA, +Betalutin, Dy5) was 9%. It also gave a viability at 0.1 µM (RIVA cells; RIVA, +Betalutin, Dy6) of 8%, a viability at 0.1 µM (RIVA cells; RIVA, −Betalutin, Dy3) of 82% and a viability at 0.1 µM (RIVA cells; RIVA, −Betalutin, Dy4) of 85%. For the same compound, the viability at 0.1 µM (RIVA cells; RIVA, −Betalutin, Dy5) was 65%, the viability at 0.1 µM (RIVA cells; RIVA, −Betalutin, Dy6) was 51% and the viability at 1 µM (RIVA cells; [17]) was 9%. It also gave a viability at 1 µM (RIVA cells; [18]) of 8%, a viability at 1 µM (RIVA cells; [19]) of 5% and a viability at 1 µM (RIVA cells; [20]) of 4%. It also gave a viability at 1 µM (RIVA cells; [21]) of 60%, a viability at 1 µM (RIVA cells; [22]) of 57% and a viability at 1 µM (RIVA cells; [23]) of 49%. The viability at 1 µM (RIVA cells; [24]) was 40%.

With NC(=O)Nc1cc(-c2cccc(F)c2)sc1C(=O)N[C@H]1CCCNC1 [AZD7762] the viability at 1 µM (U2932 cells; U2932, read-out: Growth inhibition (signal treated/control; 1 = no change)) was 4%, the “Synergy for the combination” value (U2932 cells; U2932, drug 100 nM) was “Bliss + Z-score” and the “Growth inhibition (signal treated/control; 1 = no change)” value (U2932 cells; human) was 0.03. For the same compound, the viability at 1 µM (RIVA cells) was 3% and the “Growth inhibition (signal treated/control; 1 = no change)” value (RIVA cells; human) was 0.34.

Cc1nc(N)sc1-c1ccnc(Nc2ccc(N3CCOCC3)cc2)n1 [CYC116] gave a viability at 0.1 µM (U2932 cells; [1]) of 92%, a viability at 0.1 µM (U2932 cells; [2]) of 94% and a viability at 0.1 µM (U2932 cells; [3]) of 80%. The viability at 0.1 µM (U2932 cells; [4]) was 75%, the viability at 0.1 µM (U2932 cells; [5]) was 94% and the viability at 0.1 µM (U2932 cells; [6]) was 97%. The viability at 0.1 µM (U2932 cells; [7]) was 106%, the viability at 0.1 µM (U2932 cells; [8]) was 121% and the viability at 1 µM (U2932 cells; [9]) was 72%. It also gave a viability at 1 µM (U2932 cells; [10]) of 82%, a viability at 1 µM (U2932 cells; [11]) of 74% and a viability at 1 µM (U2932 cells; [12]) of 56%. For the same compound, the viability at 1 µM (U2932 cells; [13]) was 85%, the viability at 1 µM (U2932 cells; [14]) was 89% and the viability at 1 µM (U2932 cells; [15]) was 83%. The viability at 1 µM (U2932 cells; [16]) was 61%, the “Synergy for the combination” value (U2932 cells; U2932, drug 100 nM) was “Bliss + Z-score” and the “Synergy for the combination” value (U2932 cells; U2932, drug 1 μM) was “Z-score”. The viability at 0.1 µM (RIVA cells; RIVA, +Betalutin, Dy3) was 13%, the viability at 0.1 µM (RIVA cells; RIVA, +Betalutin, Dy4) was 10% and the viability at 0.1 µM (RIVA cells; RIVA, +Betalutin, Dy5) was 6%. The viability at 0.1 µM (RIVA cells; RIVA, +Betalutin, Dy6) was 6%, the viability at 0.1 µM (RIVA cells; RIVA, −Betalutin, Dy3) was 93% and the viability at 0.1 µM (RIVA cells; RIVA, −Betalutin, Dy4) was 94%. It also gave a viability at 0.1 µM (RIVA cells; RIVA, −Betalutin, Dy5) of 114%, a viability at 0.1 µM (RIVA cells; RIVA, −Betalutin, Dy6) of 92% and a viability at 1 µM (RIVA cells; [17]) of 22%. The viability at 1 µM (RIVA cells; [18]) was 20%, the viability at 1 µM (RIVA cells; [19]) was 14% and the viability at 1 µM (RIVA cells; [20]) was 14%. It also gave a viability at 1 µM (RIVA cells; [21]) of 62%, a viability at 1 µM (RIVA cells; [22]) of 78% and a viability at 1 µM (RIVA cells; [23]) of 70%. The viability at 1 µM (RIVA cells; [24]) was 65%.
